Reference: patent publication US12350310B2, “Treatment and prevention of nephrotoxin-induced kidney injuries” (Farsight Medical Technology (Shanghai) Co., Ltd., priority 2019, dated 2025)
Values joined by “and” are separate entries in the source; they are usually repeats but may differ in a detail not shown here. Identical values can stand only once. “Also recorded” adds a separate entry of the source.

What was measured:
[1] = tested on: gentamicin-induced acute kidney injury; assay: Gentamicin-induced acute kidney injury model in rats, pathology and dose response (Example 2); assay type: in vivo; conditions: Compound I 0.5, 3, 9 mg/kg i.p.
Procedure: A further study in rats was carried out essentially in analogy to the general study protocol described in Example 1, to further assess the efficacy and impact of Compound I against gentamicin-induced acute kidney injury and to test the dose response. The tissue pathology, as well as the additional biomarkers were assessed.
Five groups formed part of the study (See Table 2): control (Group 1), vehicle (Group 2), and animals receiving Compound I at doses of 0.5 mg/kg (Group 3), 3 mg/kg (Group 4) and 9 mg/kg (Group 5). Except for the control Group 1, gentamicin (100 mg/kg) was given by intraperitoneal injection for 10 consecutive days, once daily from Day 1 to Day 10.
The vehicle, or Compound I formulated in the vehicle was administered intraperitoneally (i.p.) for 10 days, from Day 1 to Day 10 of the study (total 11 times). On initiation of the experiment (Day 1), Compound I at the specified dose amounts was administered by i.p. injection 6 h, and 1 h before the gentamicin injection to the animals in groups 3, 4 and 5. Thereafter, on Day 2 to Day 10, Compound I was administered once daily at the specified dose to said study groups, approximately 1 h prior to the gentamicin injection. On day 10, the rats were euthanized. Blood samples were collected, and the kidney tissues (both left and right kidneys) of the rats were also taken for H&E staining. Histopathological evaluation was performed on the kidney sections using standard methods and scoring criteria in the art to assess the level of tissue damage caused by the gentamicin-induced acute kidney injury. The kidney sections were assessed and scored for: necrosis of renal tubules, tubular dilation, loss of tubular brush border, cast formation in the renal tubules, and interstitial inflammatory cell (neutrophil) infiltration. The scoring was performed on a scale of 0 to 4 (0=0% i.e. no observation, 1≤5%, 2=5-25%, 3=25-50%, 4≥50% i.e. extensive, severe, or widely visible damage) on both left and right kidney tissues. The scoring was accumulated to provide a total combined score.
Kidney function analysis based on blood urea nitrogen (BUN) and creatinine in the serum was performed. Assay in plasma for biomarkers NGAL (neutrophil gelatinase-associated lipocalin) and Kim-1 (kidney injury molecule-1) was also determined.

[2] = tested on: rhabdomyolysis-induced acute kidney injury; assay: Rhabdomyolysis-induced (glycerine) acute kidney injury model in rats (Example 3); assay type: in vivo, male SD rats; conditions: Compound I 3 mg/kg IP at 6 h and 1 h prior to glycerine, kidneys after 48 h, Group 3, Mean (SEM)
Procedure: The efficacy of Compound I in protection against rhabdomyolysis-induced acute kidney injury was tested in a model study in male SD rats. The acute kidney injury model was induced in the rats by bilateral intra-muscular injection of 50% Glycerine (at a dose volume of 10 ml/kg body weight, divided into two sites of injection at each limb). Glycerine induces physiological conditions which are closely associated with rhabdomyolysis, such as myoglobinuria, tubular necrosis, and renal vasoconstriction.
Three groups formed part of the study: sham, vehicle, and compound I. Except for the sham group, where no glycerine was injected, animals were dosed twice intraperitoneally with either Compound I or Vehicle: at 6 h and at 1 h prior to receiving the glycerine injection (see Table 3).
After 48 h, the animals were euthanized, and their right and left kidneys were fixed in formalin 10%. Each kidney was cut longitudinally into 2 halves, both placed in a cassette and processed in paraffin. Sections were cut and stained using Hematoxylin and Eosin (H&E). The kidney sections were examined and histopathological analysis and scoring was performed for tubular, endothelial, glomerular and tubulointerstitial damage based on scoring systems in the art (e.g. Khalid U. et al, Journal of Histology & Histopathology. Volume 3, Article 1. 2016). Tubular epithelial necrosis scoring was based on the total number of tubules in the outer stripe of the outer medulla (OSOM). Tubulointerstitial damage was scored as a total percentage of the entire tissue observed in the section. The scores of each parameter were also added to provide a total histopathological score.
Table 4 summarizes the histopathology scoring results for the test groups sham (Group 1), vehicle (Group 2) and compound I (Group 3). All data are presented as Mean±SEM. All treatment groups were compared to the sham group (Group 1) or to the vehicle group (Group 2) using Student's T-Test. A p value <0.05 is considered to represent a significant difference.

[3] = tested on: gentamicin-induced acute kidney injury; assay: Gentamicin-induced acute kidney injury model in rats (Example 1); assay type: in vivo, male Wistar rats; conditions: Compound I 3 mg/kg i.p. before gentamicin 100 mg/kg i.p. daily
Procedure: Efficacy of the compound of Compound I against gentamicin-induced acute kidney injury was tested in a model study with male Wistar rats (180-220 g) randomly grouped based on body weights. Three groups formed part of the study: control, vehicle, and compound I (see Table I). Except for the control group, gentamicin (100 mg/kg) was given by intraperitoneal injection for 10 consecutive days, once daily from Day 1 to Day 10. The first day of gentamicin injection was designated as Day 1 of the study.
The vehicle, or the Compound I formulated in the vehicle was administered intraperitoneally (i.p.) for 10 days, from Day 1 to Day 10 of the study (total 11 times). On initiation of the experiment (Day 1), Compound I (3 mg/kg) was administered by i.p. injection 6 h, and 1 h before the gentamicin injection. Thereafter, on Day 2 to Day 10, Compound I was administered once daily (3 mg/kg) 1 h prior to the gentamicin injection. Body weights of the rats were recorded daily. On the day 10, the animals were euthanized and blood sample was collected via cardiac punction. Serum was collected and stored at −80° C. for kidney function analysis of blood urea nitrogen (BUN) and creatinine.

[4] = especially G4 and G5, versus G2 vehicle
[5] = gentamicin 100 mg/kg daily, Day 10, versus G2 vehicle
[6] = gentamicin 100 mg/kg daily, Day 10, versus Group 2 vehicle

Compound: C/C=C/C[C@@H](C)[C@@H](O)[C@H]1C(=O)N[C@@H](CC)C(=O)N(C)[C@H](OCCN(C)C)C(=O)N(C)[C@@H](CC(C)C)C(=O)N[C@@H](C(C)C)C(=O)N(C)[C@@H](CC(C)C)C(=O)N[C@@H](C)C(=O)N[C@H](C)C(=O)N(C)[C@@H](CC(C)C)C(=O)N(C)[C@@H](CC(C)C)C(=O)N(C)[C@@H](C(C)C)C(=O)N1C [Compound I, [(R)-2′ (2-dimethylaminoethoxy)-Sar]^3 cyclosporin A]
- total acute kidney injury pathology scoring of kidney tissue (FIG. 4A) ([1]; especially 3 and 9 mg/kg groups, gentamicin 100 mg/kg daily, Day 10, versus G2 vehicle): statistically significant impact in terms of generally reducing the severity of physical injury
- KIM-1 biomarker level in plasma at endpoint (FIG. 7) [1, 4]: statistically relevant reduced levels
- NGAL biomarker level in plasma at endpoint (FIG. 8) [1, 4]: statistically relevant reduced levels
- severity of neutrophil infiltration (FIG. 4B) [1, 5]: markedly reduced
- severity of tubular dilation (FIG. 4B) [1, 5]: markedly reduced
- serum BUN level at endpoint (FIG. 6) [1, 6]: lower
- serum creatinine level at endpoint (FIG. 5) [1, 6]: lower
- ED (Endothelial damage) score, Mean [2]: 0.00 a.u.
- GD (Glomerular damage) score, Mean [2]: 0.00 a.u.
- TD (Tubular Damage) score, Mean [2]: 1.10±0.07 a.u. and 1.10## a.u.
- TID (Tubulointersititial damage) score, Mean ([2]; p<0.01 vs. vehicle): 1.15±0.08 a.u. and 1.15##** a.u.
- Total Histopathological Score, Mean ([2]; p<0.01 vs. vehicle): 2.15±0.08 a.u. and 2.15##** a.u.
- rate of body weight gain over the 10-day study period (FIG. 1A) ([3]; Day 1-10, versus vehicle group): faster rate of body weight gain
- overall body-weight change from baseline measurement on Day 1 (FIG. 1B) ([3]; Day 1 to Day 10, versus vehicle group): higher compared to the rats only treated with vehicle
- serum blood urea nitrogen (BUN) level at endpoint (FIG. 2) ([3]; Day 10 serum): lower, compared to levels determined for the vehicle group; also recorded: comparable or similar levels as measured for the control group
- serum creatinine level at endpoint (FIG. 3) ([3]; Day 10 serum): lower, compared to levels determined for the vehicle group; also recorded: comparable or similar levels as measured for the control group
